Assay results from patent US20240358015A1, “HERBICIDAL COMPOSITIONS” (Agrematch Ltd., priority 2021, published 2024).

Experiments:
S. nigrum = test: Growth-chamber post-emergence assay on various weed species (Example 7); type: in vivo, Solanum nigrum; settings: 0.05% Break-Thru
Method: (§1) Herbicidal activity of Compound 1 was determined by post-emergence application on various weed species. 8-14 day old plants (weeds) were grown at 16 hours/8 hours day/night cycles at 30° C./25° C., respectively. Leaf stage was typically 2-6.
(§2) In each treatment, 3 pots (either 7×7 or 8×12 cm), containing about 3-6 plants each, were sprayed using a VL-SET Paasche Airbrush with a 1-1.5 ml-solution containing 0.5-1.5 mg/ml of the tested compound, which is equivalent to about 500-1500 g/ha.
(§3) Damage assessment: Herbicidal activity was assessed and scored 3-4 days after application by visual inspection of the plants in comparison to plants treated with the formulation alone (with no active ingredient) as control. Activity score is in the range of 0 to 100, where 0 represents no herbicidal activity like control plants and 100 represents the maximal herbicidal activity (i.e., total death of the plant).

B. cinerea = test: PDA plate fungicidal assay (Example 4); type: cell-based, Botrytis cinerea; settings: average of two plates
Method: Compound 1 was dissolved in 0.05 M Tris buffer pH=8 to a concentration of 4 mg/ml, and then diluted with a sterile PDA solution to final concentrations of 40 and 400 μg/ml. 10 ml of each solution were poured to a 100 mm petri dish and left to cool down. A 0.5 cm diameter agar disc inoculated with 3-day old B. cinerea hypha was placed upside down in the center of each PDA plate. Each treatment contained two repeats (two plates). Plates were incubated at 21° C. for 4 days. Fungicidal activity was scored by measuring the radial growth area of the hypha. Results were recorded 2-4 days after inoculation (DAI). % growth inhibition was calculated relative to control treatment without Compound 1.

S. viridis = test: Growth-chamber post-emergence assay on various weed species (Example 7); type: in vivo, Setaria viridis; settings: 0.05% Break-Thru
Method: as §1, §2, §3

[1] = system: Resistant A. rudis (target-site resistant to HRAC class 5); test: Net-house assay with resistant weeds (Example 9); type: in vivo, Amaranthus rudis; settings: 1,500 g/ha, 13 days after application, scale 0-100
Method: (§4) Herbicidal activity of Compound 1 was determined by post-emergence application in both Growth-chamber and Net-house conditions. Growing conditions were as described in Examples 6 and 8 above.
(§5) The assay was performed on 13-15 day old plants (weeds) of Amaranthus rudis that were either target-site resistant or sensitive to HRAC class 5. In each treatment, 3 pots (8×12 cm), containing about 6 Amaranthus Rudis plants, were sprayed using a VL-SET Paasche Airbrush with a 1 ml-solution.
as §3, with “13” for “3-4”

Sensitive A. rudis [2] = test: Net-house assay with resistant weeds (Example 9); type: in vivo, Amaranthus rudis; settings: 1,500 g/ha, 13 days after application, scale 0-100
Method: as §4, §5
as §3, with “13” for “3-4”

[3] = system: Resistant A. rudis (target-site resistant to HRAC class 5); test: Growth-chamber assay with resistant weeds (Example 9); type: in vivo, Amaranthus rudis; settings: 2,000 g/ha, 4-5 days after application, scale 0-100
Method: as §4
as §5, with “9-11” for “13-15”, “treatment, between 1 to” for “treatment,”
as §3, with “4-5” for “3-4”

Sensitive A. rudis [4] = test: as above; type: in vivo, Amaranthus rudis; settings: 2,000 g/ha, 4-5 days after application, scale 0-100
Method: as §4
as §5, with “9-11” for “13-15”, “treatment, between 1 to” for “treatment,”
as §3, with “4-5” for “3-4”

Amaranthus palmeri = test: Growth-chamber post-emergence herbicidal assay (Example 2); type: in vivo
Method: Herbicidal activity was determined by post-emergence application on 8-day old plants (weeds) of the Amaranthus palmeri and Setaria viridis species that were grown at 16 hours/8 hours day/night cycles at 30° C./25° C., respectively. Leaf stage was typically 4-6 for A. palmeri and 3-4 for S. viridis.
In each treatment, 2-3 pots, each containing about 5 plants each (for Setaria viridis), and one 9-pack, containing about 9 plants (for Amaranthus palmeri), were sprayed using a VL-SET Paasche Airbrush with 0.3-1.5 ml solution containing 0.125-2 mg/ml of a tested compound, which is equivalent to about 125-2000 g/ha.
as §3
Formulation design: Compounds were tested on A. Palmeri in various formulations, and in varying concentrations for each of the tested formulations, in order to determine optimal conditions for its application and performance. Activity scores were determined as described hereinabove. Solubility scores were determined by visual inspection on a scale of 1-10, with 10 representing complete solubilization and 1 represents nullified solubilization.
Each of the obtained solution was then mixed with different adjuvants and applied at a rate equivalent to 500 g/ha for A. palmeri and 1000 g/ha for S. viridis. Herbicidal activity scores 3-4 days after application are presented Table 3 below.

[5] = 750 g/ha, 0.2% MIPA, 2% TWEEN20, 1% AGNIQUE, 0.05% Ca-LAS, 0.02% BSU
[6] = 1500 g/ha, 0.8% MIPA, 0.25% Genapol, 2% HASTEN

O=C(O)c1cc(O)c2c(c1)C(=O)c1cccc(O)c1C2=O [Compound 1, Rhein]
Herbicidal activity score (S. nigrum; [5]): 95
Herbicidal activity score (S. nigrum; [6]): 100
% growth inhibition (radial growth area of the hypha, relative to control) (B. cinerea; 40 μg/ml in PDA, 2 DAI): 61%
% growth inhibition (radial growth area of the hypha, relative to control) (B. cinerea; 40 μg/ml in PDA, 3 DAI): 82%
% growth inhibition (radial growth area of the hypha, relative to control) (B. cinerea; 40 μg/ml in PDA, 4 DAI): 86%
% growth inhibition (radial growth area of the hypha, relative to control) (B. cinerea; 400 μg/ml in PDA, 2 DAI): 82%
% growth inhibition (radial growth area of the hypha, relative to control) (B. cinerea; 400 μg/ml in PDA, 3 DAI): 88%
% growth inhibition (radial growth area of the hypha, relative to control) (B. cinerea; 400 μg/ml in PDA, 4 DAI): 83%
Herbicidal activity score (S. viridis; 500 g/ha, 0.8% MIPA, 0.25% Genapol, 1% AGNIQUE, 0.05% Ca-LAS, 0.02% BSU): 70
Herbicidal activity score (S. viridis; [5]): 70
Herbicidal activity score (S. viridis; [6]): 100
Herbicidal activity score [1]: 100
Herbicidal activity score (Sensitive A. rudis [2]): 100
Herbicidal activity score [3]: 100
Herbicidal activity score (Sensitive A. rudis [4]): 100
Herbicidal activity score (Amaranthus palmeri; 500 g/ha, 0.5 mg/ml in 0.007% Ammonium hydroxide, 0.25% Adsee, 3-4 days after application): 30
Herbicidal activity score (Amaranthus palmeri; 500 g/ha, 0.5 mg/ml in 0.007% Ammonium hydroxide, 0.25% Genapol X-080, 3-4 days after application): 50
Herbicidal activity score (Amaranthus palmeri; 500 g/ha, 0.5 mg/ml in 0.007% Ammonium hydroxide, 0.7% Sodium Lauryl Ether sulfate, 3-4 days after application): 85
Herbicidal activity score (Amaranthus palmeri; 500 g/ha, 0.5 mg/ml in 0.007% Ammonium hydroxide, 1% AGNIQUE, 0.05% Ca-LAS, 0.02% BSU, 3-4 days after application): 70
Herbicidal activity score (Amaranthus palmeri; 500 g/ha, 0.5 mg/ml in 0.007% Ammonium hydroxide, 2% Tween 20, 3-4 days after application, scale 0-100): 60
Herbicidal activity score (Amaranthus palmeri; 500 g/ha, 0.5 mg/ml in 0.019% MIPA, 0.25% Adsee, 3-4 days after application): 80
Herbicidal activity score (Amaranthus palmeri; 500 g/ha, 0.5 mg/ml in 0.019% MIPA, 0.25% Genapol X-080, 3-4 days after application): 70
Herbicidal activity score (Amaranthus palmeri; 500 g/ha, 0.5 mg/ml in 0.019% MIPA, 0.7% Sodium Lauryl Ether sulfate, 3-4 days after application): 90
Herbicidal activity score (Amaranthus palmeri; 500 g/ha, 0.5 mg/ml in 0.019% MIPA, 1% AGNIQUE, 0.05% Ca-LAS, 0.02% BSU, 3-4 days after application): 80
Herbicidal activity score (Amaranthus palmeri; 500 g/ha, 0.5 mg/ml in 0.019% MIPA, 2% Tween 20, 3-4 days after application): 95
Activity Score (Amaranthus palmeri; 500 g/ha, 2% TWEEN 20, 5 mM MIPA, 1% AGNIQUE, 0.05% Ca-LAS, 0.02% BSU, 0.05% Break-Thru): 95
Activity Score (Amaranthus palmeri; 1000 g/ha, 1% TWEEN 80, 0.05M Tris buffer pH 8, 0.05% Break-Thru, 3-4 days after application, scale 0-100): 100
Activity Score (Amaranthus palmeri; 1500 g/ha, 4% TWEEN 20, 0.05M Tris buffer pH 8, 0.05% Break-Thru): 95
Activity Score (Amaranthus palmeri; 2000 g/ha, 1% TWEEN 80, 0.05M Tris buffer pH 8, 0.05% Break-Thru): 95
